Consider 22 compounds from patent US10968203B2, “Pyrimidinyl-pyridyloxy-naphthyl compounds and methods of treating IRE1-related diseases and disorders” (Genentech, Inc., priority 2017, dated 2021).

pIC50: −log10 of the molar value. Counter-ions that a name gives are not always drawn. Like-named read-outs stand apart in the source and are kept apart here.

One data set relates to cells. Conditions: high levels of 4μ8C; cited from earlier work.
The subject of another data set is XBP1s-luc 293 LUC. In words: cellular PD assay, XBP1s-LUC reporter (Example 903). To be noted: read-out: XBP1s-luc 293 LUC (IC50). It is filed as cell-based. Put shortly:
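Cellular IRE1α pathway activity was quantified from the luciferase signal of an XBP1-Luc reporter, where the luciferase fusion is in frame and expressed only from the spliced XBP1 transcript.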

In the case of `Cc1cc(=O)oc2c(C=O)c(O)ccc12` [Example 4μ8C], the toxicity in cells entry in the data set on cells is recorded as “no measurable toxicity”. Turning to `Cc1ccc2c(N3CCC4(CC4)C3=O)cccc2c1Oc1ncccc1-c1ccnc(N[C@H]2CCCNC2)n1` [Example 297, (S)-5-(6-Methyl-5-((3-(2-(piperidin-3-ylamino)pyrimidin-4-yl)pyridin-2-yl)oxy)naphthalen-1-yl)-5-azaspiro[2.4]heptan-4-one], the pIC50 – broadly, −log10 of the IC50, conventionally taken in molar units – in the data set on XBP1s-luc 293 LUC (Table 1) was 6.76. Regarding `Cc1ccc2c(NC(=O)[C@H]3CCCC3C)cccc2c1Oc1ncccc1-c1ccnc(N[C@H]2CCCNC2)n1` (single isomer, unassigned) [Example 372], in the data set on XBP1s-luc 293 LUC (Table 1), the negative logarithm of the IC50 (pIC50) was 6.33. As to `Cc1ccc2c(NC(=O)CC(C)(C)C)cccc2c1Oc1ncccc1-c1ccnc(N[C@@H]2CNC[C@H](C)C2)n1` [Example 302, 3,3-Dimethyl-N-(6-methyl-5-((3-(2-(((3S,5R)-5-methylpiperidin-3-yl)amino)pyrimidin-4-yl)pyridin-2-yl)oxy)naphthalen-1-yl)butanamide], the pIC50 with XBP1s-luc 293 LUC (Table 1) is 7.03.

Regarding `Cc1nc(CNc2c(F)ccc3c(Oc4ncccc4-c4ccnc(N[C@H]5CCCNC5)n4)c(C)ccc23)cs1` [Example 371, (S)-4-(2-((6-Fluoro-2-methyl-5-(((2-methylthiazol-4-yl)methyl)amino)naphthalen-1-yl)oxy)pyridin-3-yl)-N-(piperidin-3-yl)pyrimidin-2-amine], the negative logarithm of the IC50 (pIC50) in the data set with XBP1s-luc 293 LUC (Table 1) is 6.42.

Take `Cc1ccc2c(NS(=O)(=O)Cc3cccc(Cl)c3)cccc2c1Oc1ncccc1-c1ccnc(N[C@H]2CCCNC2)n1` [Example 144, (S)-1-(3-Chlorophenyl)-N-(6-methyl-5-((3-(2-(piperidin-3-ylamino)pyrimidin-4-yl)pyridin-2-yl)oxy)naphthalen-1-yl)methanesulfonamide]: the pIC50 in the data set on XBP1s-luc 293 LUC (Table 1) is 7.60. Regarding `Cc1ccc2c(NC(=O)CC3CCCCC3)c(F)ccc2c1Oc1ncccc1-c1ccnc(N[C@@H]2CNC[C@H](C)C2)n1` [Example 366, 2-Cyclohexyl-N-(2-fluoro-6-methyl-5-((3-(2-(((3S,5R)-5-methylpiperidin-3-yl)amino)pyrimidin-4-yl)pyridin-2-yl)oxy)naphthalen-1-yl)acetamide], in the data set on XBP1s-luc 293 LUC (Table 1), the pIC50 is 7.00. `CCCS(=O)(=O)Nc1cccc2c(Oc3ncccc3-c3ccnc(N[C@@H]4CNC[C@@H](F)C4)n3)c(C)ccc12` [Example 165, N-(5-((3-(2-(((3S,5S)-5-Fluoropiperidin-3-yl)amino)pyrimidin-4-yl)pyridin-2-yl)oxy)-6-methylnaphthalen-1-yl)propane-1-sulfonamide]: the pIC50 with XBP1s-luc 293 LUC (Table 1) is 6.79.

On to `Cc1ccc2c(NS(=O)(=O)Cc3ccccc3F)c(F)ccc2c1Oc1ncccc1-c1ccnc(N[C@@H]2CNC[C@@H](F)C2)n1` (single isomer, unassigned) [Example 464, hydrochloride], for which, in the data set on XBP1s-luc 293 LUC (Table 2), the pIC50 is 8.40. In the case of `Cc1ccc2c(NC(=O)Cc3ccccc3)cccc2c1Oc1ncccc1-c1ccnc(N[C@H]2CCCNC2)n1` [Example 184, N-[6-Methyl-5-[[3-[2-[[(3S)-3-piperidyl]amino]pyrimidin-4-yl]-2-pyridyl]oxy]-1-naphthyl]-2-phenyl-acetamide], the pIC50 in the data set on XBP1s-luc 293 LUC (Table 1) is 7.00.

As to `Cc1ncc(S(=O)(=O)Nc2cccc3c(Oc4ncccc4-c4ccnc(N[C@H]5CCCNC5)n4)c(C)ccc23)s1` [Example 210, (S)-2-Methyl-N-(6-methyl-5-((3-(2-(piperidin-3-ylamino)pyrimidin-4-yl)pyridin-2-yl)oxy)naphthalen-1-yl)thiazole-5-sulfonamide], the pIC50 in the data set on XBP1s-luc 293 LUC (Table 1) was 6.34. For the compound `Cc1ccc2c(NCCc3cscn3)cccc2c1Oc1ncccc1-c1ccnc(N[C@H]2CCCNC2)n1` [Example 260, (S)-4-(2-((2-Methyl-5-((2-(thiazol-4-yl)ethyl)amino)naphthalen-1-yl)oxy)pyridin-3-yl)-N-(piperidin-3-yl)pyrimidin-2-amine], the pIC50 with XBP1s-luc 293 LUC (Table 1) was 6.99.

As to `Cc1ccc2c(NS(=O)(=O)C3CCCCC3)c(F)ccc2c1Oc1ncccc1-c1ccnc(N[C@@H]2CNC[C@H](C)C2)n1` [Example 317, N-(2-Fluoro-6-methyl-5-((3-(2-(((3S,5R)-5-methylpiperidin-3-yl)amino)pyrimidin-4-yl)pyridin-2-yl)oxy)naphthalen-1-yl)cyclohexanesulfonamide], the pIC50 in the data set on XBP1s-luc 293 LUC (Table 1) is 7.75. Regarding `Cc1ccc2c(Nc3nn(C)cc3F)cccc2c1Oc1ncccc1-c1ccnc(N[C@H]2CCCNC2)n1` [Example 360, (S)-4-(2-((5-((4-Fluoro-1-methyl-1H-pyrazol-3-yl)amino)-2-methylnaphthalen-1-yl)oxy)pyridin-3-yl)-N-(piperidin-3-yl)pyrimidin-2-amine], the pIC50 with XBP1s-luc 293 LUC (Table 1) is 6.34.

In the case of `CCCS(=O)(=O)Nc1cccc2c(Oc3ncc(C)cc3-c3ccnc(N[C@H]4CCCNC4)n3)c(C)ccc12` [Example 240, (S)—N-(6-Methyl-5-((5-methyl-3-(2-(piperidin-3-ylamino)pyrimidin-4-yl)pyridin-2-yl)oxy)naphthalen-1-yl)propane-1-sulfonamide], the pIC50 in the data set on XBP1s-luc 293 LUC (Table 1) was 6.78. Still for that read-out and setting: the same measure for `Cc1ccc2c(Oc3ncccc3-c3ccnc(N[C@H]4CCCNC4)n3)c(C)ccc2c1NC(=O)C1CC1` [Example 284, (S)—N-(2,6-Dimethyl-5-((3-(2-(piperidin-3-ylamino)pyrimidin-4-yl)pyridin-2-yl)oxy)Naphthalen-1-yl)cyclopropanecarboxamide]: 7.01. `Cc1ccc2c(NC[C@H](O)C3CC3)cccc2c1Oc1ncccc1-c1ccnc(N[C@H]2CCCNC2)n1` (single isomer, unassigned) [Example 489, hydrochloride]: in the data set on XBP1s-luc 293 LUC (Table 2), the pIC50 is 6.88. In the case of `Cc1ccc2c(NS(=O)(=O)N(C)Cc3ccccc3)c(F)ccc2c1Oc1ncccc1-c1ccnc(N[C@H]2CCCNC2)n1` [Example 410, 4-[2-[[5-[[Benzyl(methyl)sulfamoyl]amino]-6-fluoro-2-methyl-1-naphthyl]oxy]-3-pyridyl]-2-[[(3S)-3-piperidyl]amino]pyrimidine hydrochloride], the negative-log IC50 (pIC50) in the data set with XBP1s-luc 293 LUC (Table 2) was 7.06.

For `Cc1ccc2c(Nc3cc(C)n(C)n3)cccc2c1Oc1ncccc1-c1ccnc(N[C@H]2CCCNC2)n1` [Example 258, (S)-4-(2-((5-((1,5-Dimethyl-1H-pyrazol-3-yl)amino)-2-methylnaphthalen-1-yl)oxy)pyridin-3-yl)-N-(piperidin-3-yl)pyrimidin-2-amine], in the data set on XBP1s-luc 293 LUC (Table 1), the pIC50 is 6.38. Still for that read-out and setting: the same measure for `CCCS(=O)(=O)Nc1cccc2c(Oc3ncc(Cl)cc3-c3ccnc(N[C@H]4CCCNC4)n3)c(C)ccc12` [Example 385, (S)—N-(5-((5-Chloro-3-(2-(piperidin-3-ylamino)pyrimidin-4-yl)pyridin-2-yl)oxy)-6-methylnaphthalen-1-yl)propane-1-sulfonamide]: 6.44; for `Cc1ccc2c(NC(=O)CC(C)(C)C)c(F)ccc2c1Oc1ncccc1-c1ccnc(N[C@@H]2CNC[C@H](C)C2)n1` [Example 374, N-(2-Fluoro-6-methyl-5-((3-(2-(((3S,5R)-5-methylpiperidin-3-yl)amino)pyrimidin-4-yl)pyridin-2-yl)oxy)naphthalen-1-yl)-3,3-dimethylbutanamide]: 7.40. Consider `Cc1ccc2c(NC(=O)CC(O)C(F)(F)F)cccc2c1Oc1ncccc1-c1ccnc(N[C@H]2CCCNC2)n1` (single isomer, unassigned) [Example 435], for which the pIC50 with XBP1s-luc 293 LUC (Table 2) was 6.47.
